Assay results from US20230364070A1, “PYRROLO[3,2-C]PYRIDIN-4-ONE DERIVATIVES USEFUL IN THE TREATMENT OF CANCER” (Scorpion Therapeutics, Inc., priority 2020, published 2023).

Columns and labels:
Format in all cases: cell-based
Ba/F3 cells with EGFR WT = molecular target: T1, Ba/F3 cells with EGFR WT (Homo sapiens, UniProt P00533); experiment: EGFR activity: Ba/F3 cell viability (CellTiter-Glo, 72 h), EGFR WT; details: read-out: BaF3 WT IC50
T1 construct: expressed in transfected cells; host or cells: Ba/F3 (murine pro-B cells), retroviral transduction, puromycin selection, maintained with EGF

[1] = molecular target: T2, Ba/F3 cells with EGFR exon 20 NPG Ins D770_N771 (Homo sapiens, UniProt P00533, INS770NPG); experiment: EGFR activity: Ba/F3 cell viability (CellTiter-Glo, 72 h), EGFR exon 20 NPG insertion; details: EGFR exon 20 NPG Ins D770_N771, cell viability, read-out: BaF3 NPG IC50
T2 construct: expressed in transfected cells; host or cells: Ba/F3 (murine pro-B cells), retroviral transduction, puromycin selection, IL3-independent pool

[2] = molecular target: T3, Ba/F3 cells with EGFR exon 20 ASV Ins V769_D770 (Homo sapiens, UniProt P00533, INS769ASV); experiment: EGFR activity: Ba/F3 cell viability (CellTiter-Glo, 72 h), EGFR exon 20 ASV insertion; details: EGFR exon 20 ASV Ins V769_D770, cell viability, read-out: BaF3 ASV IC50
T3 construct: expressed in transfected cells; host or cells: Ba/F3 (murine pro-B cells), retroviral transduction, puromycin selection, IL3-independent pool

pEGFR in CUTO14 cells = molecular target: T4, pEGFR in CUTO14 cells (Homo sapiens, UniProt P00533, DUP767-769); experiment: Inhibitor activity on EGFR phosphorylation (pEGFR AlphaLISA, 2 h), CUTO14 cells
T4 construct: endogenous in cells; host or cells: CUTO14 cells
Experimental: CUTO14 cells were obtained from Dr. Robert C. Doebele at the University of Colorado.
Shake 350 rpm for 1 hr in the dark • 3.4 Prepare donor mix under low light conditions prior to use. Dispense 5 μL of donor mix to all the wells. Mix well on the shaker, seal and wrap in aluminum foil and incubate 1.5 hrs at room temperature in the dark • 3.5 Transfer 18.5 μL mixture to OptiPlate 384, and read using an Envision.

T1 sequence (P00533 25-1210): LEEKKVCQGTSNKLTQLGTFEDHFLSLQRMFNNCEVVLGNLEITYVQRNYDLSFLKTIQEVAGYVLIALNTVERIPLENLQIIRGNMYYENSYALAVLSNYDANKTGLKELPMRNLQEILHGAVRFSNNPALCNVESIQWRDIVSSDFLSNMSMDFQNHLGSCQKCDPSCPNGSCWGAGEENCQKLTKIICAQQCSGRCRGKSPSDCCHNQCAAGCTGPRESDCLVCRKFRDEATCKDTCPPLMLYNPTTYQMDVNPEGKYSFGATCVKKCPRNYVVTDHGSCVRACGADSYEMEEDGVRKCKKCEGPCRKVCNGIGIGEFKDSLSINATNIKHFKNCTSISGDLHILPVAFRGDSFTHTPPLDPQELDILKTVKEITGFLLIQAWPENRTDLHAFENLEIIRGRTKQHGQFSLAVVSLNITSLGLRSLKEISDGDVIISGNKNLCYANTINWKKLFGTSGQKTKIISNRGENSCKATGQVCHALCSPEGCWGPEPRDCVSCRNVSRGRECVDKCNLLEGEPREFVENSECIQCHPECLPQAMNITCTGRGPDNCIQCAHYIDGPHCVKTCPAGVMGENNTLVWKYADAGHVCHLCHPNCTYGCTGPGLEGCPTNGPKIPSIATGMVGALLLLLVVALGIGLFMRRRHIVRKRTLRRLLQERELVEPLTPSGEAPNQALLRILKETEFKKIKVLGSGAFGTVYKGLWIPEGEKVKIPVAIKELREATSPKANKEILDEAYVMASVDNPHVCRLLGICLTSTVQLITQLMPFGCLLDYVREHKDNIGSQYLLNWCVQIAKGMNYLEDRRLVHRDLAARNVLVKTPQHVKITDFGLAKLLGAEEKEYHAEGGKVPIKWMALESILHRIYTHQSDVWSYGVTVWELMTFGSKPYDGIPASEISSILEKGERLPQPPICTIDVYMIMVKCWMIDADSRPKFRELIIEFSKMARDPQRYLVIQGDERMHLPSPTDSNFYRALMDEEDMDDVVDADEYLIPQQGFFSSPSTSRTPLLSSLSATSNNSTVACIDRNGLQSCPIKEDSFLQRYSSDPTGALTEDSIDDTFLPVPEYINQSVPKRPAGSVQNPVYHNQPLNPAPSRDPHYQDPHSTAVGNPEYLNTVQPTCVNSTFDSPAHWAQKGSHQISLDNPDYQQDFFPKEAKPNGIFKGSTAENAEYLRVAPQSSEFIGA
T2 sequence (P00533 with tags, fused parts or gaps INS770NPG): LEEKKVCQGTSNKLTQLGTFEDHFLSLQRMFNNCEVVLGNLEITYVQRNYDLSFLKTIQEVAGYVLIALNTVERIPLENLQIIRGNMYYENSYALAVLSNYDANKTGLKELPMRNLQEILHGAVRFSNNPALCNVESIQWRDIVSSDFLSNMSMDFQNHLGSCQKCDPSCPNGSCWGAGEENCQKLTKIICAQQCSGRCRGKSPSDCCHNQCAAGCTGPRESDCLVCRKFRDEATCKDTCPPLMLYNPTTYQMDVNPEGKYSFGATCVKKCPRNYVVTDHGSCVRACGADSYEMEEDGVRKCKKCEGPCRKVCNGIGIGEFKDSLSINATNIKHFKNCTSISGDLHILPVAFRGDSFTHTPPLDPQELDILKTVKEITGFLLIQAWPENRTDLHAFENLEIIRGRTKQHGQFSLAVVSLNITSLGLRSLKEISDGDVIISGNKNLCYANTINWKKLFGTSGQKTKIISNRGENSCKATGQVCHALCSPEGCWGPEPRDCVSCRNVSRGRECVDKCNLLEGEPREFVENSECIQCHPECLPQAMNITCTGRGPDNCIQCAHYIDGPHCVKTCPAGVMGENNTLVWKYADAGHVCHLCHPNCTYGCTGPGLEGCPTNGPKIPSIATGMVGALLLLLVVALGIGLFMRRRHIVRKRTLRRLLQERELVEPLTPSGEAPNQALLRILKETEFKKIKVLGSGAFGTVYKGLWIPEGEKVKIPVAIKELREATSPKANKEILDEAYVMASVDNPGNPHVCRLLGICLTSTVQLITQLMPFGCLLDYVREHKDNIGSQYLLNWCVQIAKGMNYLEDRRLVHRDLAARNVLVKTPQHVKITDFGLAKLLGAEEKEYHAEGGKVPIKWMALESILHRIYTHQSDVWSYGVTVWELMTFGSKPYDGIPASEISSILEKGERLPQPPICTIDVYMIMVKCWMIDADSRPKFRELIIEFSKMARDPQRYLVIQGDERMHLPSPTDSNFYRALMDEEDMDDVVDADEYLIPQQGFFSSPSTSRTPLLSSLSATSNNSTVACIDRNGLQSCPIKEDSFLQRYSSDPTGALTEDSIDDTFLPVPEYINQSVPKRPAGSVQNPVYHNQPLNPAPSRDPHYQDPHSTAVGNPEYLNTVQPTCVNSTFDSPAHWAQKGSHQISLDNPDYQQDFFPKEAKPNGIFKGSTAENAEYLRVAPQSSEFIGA
T3 sequence (P00533 with tags, fused parts or gaps INS769ASV): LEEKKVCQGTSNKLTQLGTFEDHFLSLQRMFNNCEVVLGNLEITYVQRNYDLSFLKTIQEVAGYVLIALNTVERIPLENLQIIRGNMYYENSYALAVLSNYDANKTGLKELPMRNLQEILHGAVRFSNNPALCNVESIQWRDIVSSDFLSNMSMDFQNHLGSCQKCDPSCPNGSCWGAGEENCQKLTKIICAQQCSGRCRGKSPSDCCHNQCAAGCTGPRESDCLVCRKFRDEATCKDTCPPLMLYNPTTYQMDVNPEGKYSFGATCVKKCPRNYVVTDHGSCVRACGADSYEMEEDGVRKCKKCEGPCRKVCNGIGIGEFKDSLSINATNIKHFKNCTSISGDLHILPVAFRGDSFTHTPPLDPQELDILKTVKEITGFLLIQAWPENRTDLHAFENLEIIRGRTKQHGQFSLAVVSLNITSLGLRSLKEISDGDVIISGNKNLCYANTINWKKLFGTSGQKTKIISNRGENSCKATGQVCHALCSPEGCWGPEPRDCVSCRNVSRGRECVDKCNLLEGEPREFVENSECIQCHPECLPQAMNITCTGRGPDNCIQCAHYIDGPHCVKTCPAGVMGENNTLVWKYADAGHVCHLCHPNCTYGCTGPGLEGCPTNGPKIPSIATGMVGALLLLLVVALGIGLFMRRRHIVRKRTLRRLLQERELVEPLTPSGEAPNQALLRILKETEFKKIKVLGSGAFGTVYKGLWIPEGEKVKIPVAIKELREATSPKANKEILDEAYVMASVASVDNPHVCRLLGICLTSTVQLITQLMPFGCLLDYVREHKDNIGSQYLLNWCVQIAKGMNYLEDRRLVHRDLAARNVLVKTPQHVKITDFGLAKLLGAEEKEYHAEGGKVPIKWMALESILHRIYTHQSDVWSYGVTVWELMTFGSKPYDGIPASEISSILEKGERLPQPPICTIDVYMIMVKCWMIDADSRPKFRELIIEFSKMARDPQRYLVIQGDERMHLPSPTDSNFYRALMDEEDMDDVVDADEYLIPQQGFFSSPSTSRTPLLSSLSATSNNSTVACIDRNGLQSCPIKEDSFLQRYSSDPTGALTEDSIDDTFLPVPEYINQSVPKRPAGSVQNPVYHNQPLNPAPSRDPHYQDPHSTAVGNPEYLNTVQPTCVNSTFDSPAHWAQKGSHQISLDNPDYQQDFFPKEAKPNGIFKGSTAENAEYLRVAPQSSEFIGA
T4 sequence (P00533 with tags, fused parts or gaps DUP767-769): as the sequence (P00533 with tags, fused parts or gaps INS769ASV) above

| Compound | IC50 (pEGFR in CUTO14 cells) [nM] | IC50 (Ba/F3 cells with EGFR WT) [nM] | IC50 [1] [nM] | IC50 [2] [nM] |
| --- | --- | --- | --- | --- |
| C=CC(=O)N1[C@H](C)CC[C@H]1C#Cc1cnccc1-c1[nH]c2c(c1Nc1cccc(F)c1OC)C(=O)NCC2 [compound 257] | < 100 | < 100 | < 100 | < 100 |
| C=CC(=O)NC1(C#Cc2cnccc2-c2[nH]c3c(c2Nc2cccc(Cl)c2OC)C(=O)NCC3)CCC1 [compound 261] | < 100 | 100 to 1000 | < 100 | < 100 |
| C=CC(=O)NC1(C#Cc2cnccc2-c2[nH]c3c(c2Nc2cccc(Cl)c2OC)C(=O)NCC3)COC1 [compound 264, N-{3-[2-(4-{3-[(3-chloro-2-methoxyphenyl)amino]-4-oxo-1H,5H,6H,7H-pyrrolo[3,2-c]pyridin-2-yl}pyridin-3-yl)ethynyl]oxetan-3-yl}prop-2-enamide] | < 100 | 100 to 1000 | < 100 | < 100 |
| C=CC(=O)N1CC(C)(C)C[C@@H]1COc1cnccc1-c1[nH]c2c(c1Nc1cccc(Cl)c1OC)C(=O)NCC2 [compound 265] | < 100 | < 100 | < 100 | < 100 |
| C=CC(=O)N1[C@H](COc2cnccc2-c2[nH]c3c(c2Nc2cccc(Cl)c2OC)C(=O)NCC3)C[C@H]1C [compound 270] | < 100 | 100 to 1000 | < 100 | < 100 |
| C=CC(=O)N1[C@@H](COc2cnccc2-c2[nH]c3c(c2Nc2cccc(Cl)c2OC)C(=O)NCC3)C[C@H]1C [compound 271] | < 100 | < 100 | < 100 | < 100 |
| C=CC(=O)N1[C@@H](COc2cnccc2-c2[nH]c3c(c2Nc2cccc(Cl)c2OC)C(=O)NCC3)C[C@@H]1C [compound 272] | < 100 | < 100 | < 100 | < 100 |
| C=CC(=O)N1[C@H](COc2cnccc2-c2[nH]c3c(c2Nc2cccc(Cl)c2OC)C(=O)NCC3)C[C@@H]1C [compound 273] | < 100 | < 100 | < 100 | < 100 |
| CC#CC(=O)N1CCOC[C@H]1COc1cnccc1-c1[nH]c2c(c1Nc1cccc(F)c1OC)C(=O)NCC2 [compound 292] | 100 to 1000 | > 1000 | 100 to 1000 | 100 to 1000 |
| C=CC(=O)N1[C@@H](C#Cc2cnccc2-c2[nH]c3c(c2Nc2cccc(F)c2OC)C(=O)NCC3)C[C@@H]2C[C@@H]21 [compound 301] | < 100 | 100 to 1000 | < 100 | < 100 |
| C=CC(=O)N1CCC[C@]1(C)C#Cc1cnccc1-c1[nH]c2c(c1Nc1cccc(F)c1CC)C(=O)NCC2 [compound 305] | < 100 | 100 to 1000 | < 100 | < 100 |
| CC#CC(=O)N1CC[C@]1(C)COc1cnccc1-c1[nH]c2c(c1Nc1cccc(F)c1OC)C(=O)NCC2 [compound 307] | < 100 | 100 to 1000 | < 100 | < 100 |
| CC#CC(=O)N1CC[C@]1(C)COc1cnccc1-c1[nH]c2c(c1Nc1cccc(Cl)c1OC)C(=O)NCC2 [compound 308] | < 100 | 100 to 1000 | < 100 | < 100 |
| C=CC(=O)NC1(C#Cc2cnccc2-c2[nH]c3c(c2Nc2cccc(F)c2OC)C(=O)NCC3)CN(C)C1 [compound 336] | 100 to 1000 | > 1000 | 100 to 1000 | 100 to 1000 |
| CC#CC(=O)N1CC[C@@H]1COc1cnccc1-c1[nH]c2c(c1Nc1cc(F)cc(Cl)c1OC)C(=O)NCC2 [compound 346] | < 100 | 100 to 1000 | < 100 | < 100 |
| CC#CC(=O)N1CC[C@@H]1COc1cnccc1-c1[nH]c2c(c1Nc1cc(F)cc(F)c1OC)C(=O)NCC2 [compound 347] | < 100 | 100 to 1000 | < 100 | < 100 |
| CC#CC(=O)N1CC[C@@H]1COc1cnccc1-c1[nH]c2c(c1Nc1cccc(F)c1F)C(=O)NCC2 [compound 350] | < 100 | 100 to 1000 | < 100 | < 100 |
| CC#CC(=O)N1CC[C@@]1(C)COc1cnccc1-c1[nH]c2c(c1Nc1cccc(F)c1OC)C(=O)NCC2 [compound 357] | 100 to 1000 | > 1000 | 100 to 1000 | 100 to 1000 |
| CC#CC(=O)N1CC[C@@]1(C)COc1cnccc1-c1[nH]c2c(c1Nc1cccc(Cl)c1OC)C(=O)NCC2 [compound 358] | 100 to 1000 | > 1000 | 100 to 1000 | 100 to 1000 |
| C=C(F)C(=O)N1CC[C@@H]1COc1cnccc1-c1[nH]c2c(c1Nc1cc(F)cc(F)c1OC)C(=O)NCC2 [compound 365] | 100 to 1000 | 100 to 1000 | 100 to 1000 | 100 to 1000 |
| CC#CC(=O)N1CC[C@@H]1C#Cc1cnccc1-c1[nH]c2c(c1Nc1cccc(F)c1OC)C(=O)NCC2 [compound 373] | < 100 | < 100 | < 100 | < 100 |
| CC#CC(=O)N1CC[C@H]1C#Cc1cnccc1-c1[nH]c2c(c1Nc1cccc(F)c1OC)C(=O)NCC2 [compound 374] | < 100 | 100 to 1000 | < 100 | < 100 |
| C=CC(=O)NC1(C#Cc2cnccc2-c2[nH]c3c(c2Nc2cccc(Cl)c2OC)C(=O)NCC3)CCOCC1 [compound 382] | < 100 | 100 to 1000 | < 100 | < 100 |
| C=CC(=O)NC1(C#Cc2cnccc2-c2[nH]c3c(c2Nc2cccc(F)c2OC)C(=O)NCC3)CCOCC1 [compound 383] | 100 to 1000 | > 1000 | < 100 | 100 to 1000 |
| C=CC(=O)NC(C)(C)C#Cc1cnccc1-c1[nH]c2c(c1Nc1cccc(F)c1C)C(=O)NCC2 [compound 385] | < 100 | < 100 | < 100 | < 100 |
| C=CC(=O)N[C@@]1(C#Cc2cnccc2-c2[nH]c3c(c2Nc2cccc(F)c2C)C(=O)NCC3)CCOC1 [compound 386] | < 100 | 100 to 1000 | < 100 | < 100 |

The next lines start with results.

| IC50 (pEGFR in CUTO14 cells) [nM] | Compound | IC50 (Ba/F3 cells with EGFR WT) [nM] | IC50 [1] [nM] | IC50 [2] [nM] |
| --- | --- | --- | --- | --- |
| < 100 | C=CC(=O)N[C@]1(C#Cc2cnccc2-c2[nH]c3c(c2Nc2cccc(F)c2C)C(=O)NCC3)CCOC1 [compound 387] | 100 to 1000 | < 100 | < 100 |
| < 100 | COc1c(Cl)cccc1Nc1c(-c2ccncc2C#CC(C)(C)NC(=O)/C=C/CN(C)C)[nH]c2c1C(=O)NCC2 [compound 388] | 100 to 1000 | < 100 | < 100 |
| < 100 | C=C(F)C(=O)NC(C)(C)C#Cc1cnccc1-c1[nH]c2c(c1Nc1cccc(F)c1OC)C(=O)NCC2 [compound 389] | 100 to 1000 | < 100 | < 100 |
| < 100 | C=C(F)C(=O)NC(C)(C)C#Cc1cnccc1-c1[nH]c2c(c1Nc1cccc(Cl)c1OC)C(=O)NCC2 [compound 390] | 100 to 1000 | < 100 | < 100 |
| 100 to 1000 | COc1c(F)cccc1Nc1c(-c2ccncc2C#CC(C)(C)NC(=O)/C=C/CN2CCOCC2)[nH]c2c1C(=O)NCC2 [compound 391] | > 1000 | 100 to 1000 | 100 to 1000 |
| < 100 | COc1c(F)cccc1Nc1c(-c2ccncc2C#CC(C)(C)NC(=O)/C=C/CN2CCCC2)[nH]c2c1C(=O)NCC2 [compound 392] | 100 to 1000 | < 100 | < 100 |
| < 100 | COc1c(F)cccc1Nc1c(-c2ccncc2C#CC(C)(C)NC(=O)/C=C/CN2CC(OC)C2)[nH]c2c1C(=O)NCC2 [compound 393] | 100 to 1000 | < 100 | < 100 |
| 100 to 1000 | COc1c(F)cccc1Nc1c(-c2ccncc2C#CC(C)(C)NC(=O)/C=C/CN[C@@H]2CCOC2)[nH]c2c1C(=O)NCC2 [compound 394] | > 1000 | 100 to 1000 | 100 to 1000 |
| 100 to 1000 | COc1c(F)cccc1Nc1c(-c2ccncc2C#CC(C)(C)NC(=O)/C=C/CN[C@H]2CCOC2)[nH]c2c1C(=O)NCC2 [compound 395] | > 1000 | 100 to 1000 | 100 to 1000 |
| < 100 | C=CC(=O)NC1(C#Cc2cnccc2-c2[nH]c3c(c2Nc2cccc(Cl)c2OC)C(=O)NCC3)CC(F)(F)C1 [compound 400] | 100 to 1000 | < 100 | < 100 |
| < 100 | C=CC(=O)NC1(C#Cc2cnccc2-c2[nH]c3c(c2Nc2cccc(F)c2OC)C(=O)NCC3)CC(F)(F)C1 [compound 401] | 100 to 1000 | < 100 | < 100 |
| < 100 | CC#CC(=O)N1CC[C@@H]1COc1cnccc1-c1[nH]c2c(c1Nc1cccc(F)c1Cl)C(=O)NCC2 [compound 406] | < 100 | < 100 | < 100 |
| < 100 | CC#CC(=O)N1CC[C@@H]1COc1cnccc1-c1[nH]c2c(c1Nc1cccc(Cl)c1F)C(=O)NCC2 [compound 407] | < 100 | < 100 | < 100 |
